Experimental data published in patent publication US20060116451A1, “Stabilization of antioxidants” (priority 2004, published 2006).

Test: Residual antioxidant activity (ABTS^+) upon exposure to UV-irradiated TiO2
Type: physicochemical
Conditions: FIG. 6
Procedure: Exposure of enzymes to UV-irradiated TiO2: Enzyme (0.8 mg protein/mL, total 10 mL in 25 mM phosphate buffer, pH 7.5) was placed in an open scintillation vial. TiO2 fine powder (0.25 mg/mL) was added to the protein solution and the suspension was stirred gently at room temperature (25° C.) with a magnetic stir bar placed inside the vial. The enzyme-TiO2 suspension was placed under a […] UV lamp (model No. B-100AP, UVP, San Gabriel, Calif.). The distance between the UV lamp and the vial was 18 cm. At this distance, the UV irradiance at 365 nm (λmax) was 8 mW/cm^2 (determined using a […]® UV meter (Model No. J-221). It was also verified that there was no thermal denaturation of the enzyme during irradiation and the temperature of the enzyme-TiO2 suspension remained constant (25±2° C.) throughout. Exposure of antioxidants to UV-irradiated TiO2: Trolox (0.01 mg/mL) was dissolved in 10 mL phosphate buffer (25 mM, pH 7.5). TiO2 (0.25 mg/mL) was added to the Trolox solution. The suspension was stirred and irradiated with UV as described above. At 30 min intervals, 1 mL aliquots were removed from the irradiating suspension and filtered through a 0.2 μm filter. […] Determination of residual antioxidant activity: Antioxidant activities of modified enzymes and the modifiers were measured according to the following modification of the assay reported by Re et al. Re, […].; Yang, M.; Rice-Evans, C. […]

In the case of `Cc1c(C)c2c(c(C)c1O)CCC(C)(C(=O)O)O2` (stereo not shown) [Trolox, 6-hydroxy-2,5,7,8-tetramethylchroman-2-carboxylic acid], the “loss of free radical absorbing activity during the first hour of photooxidation (TiO2-UV)” value is reported as 80%.
